Drawing on patent publication US20250230155A1 (Vanderbilt University, priority 2021, published 2025), this text covers Emax and EC50 for 28 compounds.

This test has as its target T1, human mAChR M4 (Homo sapiens, UniProt P08173).
T1 construct: expressed in transfected cells
T1 sequence (P08173 1-479): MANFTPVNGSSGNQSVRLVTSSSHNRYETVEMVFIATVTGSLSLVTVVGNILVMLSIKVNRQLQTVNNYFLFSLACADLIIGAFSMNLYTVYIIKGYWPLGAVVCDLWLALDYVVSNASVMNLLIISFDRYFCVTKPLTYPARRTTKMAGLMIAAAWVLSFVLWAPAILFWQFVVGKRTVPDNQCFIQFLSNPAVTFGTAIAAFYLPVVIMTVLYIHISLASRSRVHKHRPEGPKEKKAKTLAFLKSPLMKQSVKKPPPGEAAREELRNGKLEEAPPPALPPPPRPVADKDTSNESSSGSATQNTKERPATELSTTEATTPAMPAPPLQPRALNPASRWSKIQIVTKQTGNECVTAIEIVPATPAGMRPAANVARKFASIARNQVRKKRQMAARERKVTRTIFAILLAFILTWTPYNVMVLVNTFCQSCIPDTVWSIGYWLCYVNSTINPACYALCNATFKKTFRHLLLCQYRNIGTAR
As to the kind of experiment: mAChR M4 cell-based functional assay (calcium mobilization, CHO-K1 hM4-Gqi5 cells). The following applies: for Emax at 30 µM: CHO-K1, % ACh maximum at 30 μM, human M4; for EC50: positive allosteric modulator activity, increase in the EC20 acetylcholine response, CHO-K1 hM4-Gqi5 cells, read-out: Human M4 EC50; for Emax: CHO-K1. An outline of the steps: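 Fluorescent calcium read-out (Fluo-4 AM, FDSS, 1 Hz) in hM4-Gqi5 CHO-K1 cells, 11-point 1:3 compound series. Agonism scored on compound addition, PAM activity as increase of the 144 s EC20 acetylcholine response, antagonism as decrease of the 230 s EC80 response; four-parameter logistic fits give EC50 and Emax.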
Background: Calcium flux is commonly read through the fluorescence of an indicator in the cells.

As a reminder, the Emax is the size of the effect at its maximum, as opposed to the concentration needed. The term EC50 denotes the concentration that produces a half-maximal response.

In the case of `Cc1ccc(-c2cnc3c(c2)CN(c2ncc(C#N)cc2C)CC3)cn1` [compound 187, 5-methyl-6-[3-(6-methyl-3-pyridyl)-7,8-dihydro-5H-1,6-naphthyridin-6-yl]pyridine-3-carbonitrile], the Emax at 30 µM came out at 108% and the EC50 worked out at 138 nM.

Consider `COc1ccc(-c2cnc3c(c2)CN(c2ncc(C#N)cc2C)CC3)cn1` [compound 188, 6-[3-(6-methoxy-3-pyridyl)-7,8-dihydro-5H-1,6-naphthyridin-6-yl]-5-methyl-pyridine-3-carbonitrile], for which the maximal effect (Emax) at 30 µM worked out at 106% and the EC50 turned out to be 244 nM.

On to `Cc1cc(-c2cnc3c(c2)CN(c2nnc(C(=O)NCc4ccncc4)c(C)c2C)CC3)ccn1` [compound 189, 4,5-dimethyl-6-[3-(2-methyl-4-pyridyl)-7,8-dihydro-5H-1,6-naphthyridin-6-yl]-N-(4-pyridylmethyl)pyridazine-3-carboxamide], for which the Emax at 30 µM came to 93% and the EC50 is 199 nM.

With `Cc1c(C(=O)NCc2ccncc2)nnc(N2CCc3ncc(Nc4ccccc4F)cc3C2)c1C` [compound 190, 6-[3-(2-fluoroanilino)-7,8-dihydro-5H-1,6-naphthyridin-6-yl]-4,5-dimethyl-N-(4-pyridylmethyl)pyridazine-3-carboxamide], the maximal effect (Emax) at 30 µM worked out at 105% and the concentration giving a half-maximal response (EC50) worked out at 136 nM.

Consider `Cc1cc(C#N)cnc1N1CCc2ncc(-c3cccnc3)cc2C1` [compound 191, 5-methyl-6-[3-(3-pyridyl)-7,8-dihydro-5H-1,6-naphthyridin-6-yl]pyridine-3-carbonitrile], for which the Emax at 30 µM worked out at 98% and the EC50 was 187 nM.

As for `Cc1nc(Cl)c(C)c(N2CCc3ncc(-c4cn(C)nc4C)cc3C2)n1` [compound 192, 6-(6-chloro-2,5-dimethyl-pyrimidin-4-yl)-3-(1,3-dimethylpyrazol-4-yl)-7,8-dihydro-5H-1,6-naphthyridine], the Emax at 30 µM was found to be 90% and the EC50 was determined as 169 nM.

In the case of `Cc1nc(Cl)c(C)c(N2CCc3ncc(-c4c(C)nn(C)c4C)cc3C2)n1` [compound 193, 6-(6-chloro-2,5-dimethyl-pyrimidin-4-yl)-3-(1,3,5-trimethylpyrazol-4-yl)-7,8-dihydro-5H-1,6-naphthyridine], the Emax at 30 µM was 82% and the EC50 was 605 nM.

For `Cc1nc(Cl)c(C)c(N2CCc3ncc(-c4cnn(CC5CC5)c4)cc3C2)n1` [compound 194, 6-(6-chloro-2,5-dimethyl-pyrimidin-4-yl)-3-[1-(cyclopropylmethyl)pyrazol-4-yl]-7,8-dihydro-5H-1,6-naphthyridine], the Emax at 30 µM stood at 93% and the EC50 was found to be 211 nM.

Turning to `Cc1nc(Cl)c(C)c(N2CCc3ncc(-c4cnn(C5CCC5)c4)cc3C2)n1` [compound 195, 6-(6-chloro-2,5-dimethyl-pyrimidin-4-yl)-3-(1-cyclobutylpyrazol-4-yl)-7,8-dihydro-5H-1,6-naphthyridine], the maximum response (Emax) at 30 µM came out at 80% and the EC50 came out at 611 nM.

`COc1nc(C)nc(N2CCc3ncc(-c4cn(C)nc4C)cc3C2)c1C` [compound 196, 3-(1,3-dimethylpyrazol-4-yl)-6-(6-methoxy-2,5-dimethyl-pyrimidin-4-yl)-7,8-dihydro-5H-1,6-naphthyridine]: the Emax at 30 µM came to 70% and the half-maximal effective concentration (EC50) stood at 1170 nM.

For `Cc1nc(Cl)c(C)c(N2CCc3ncc(-c4c(C)noc4C)cc3C2)n1` [compound 197, 4-[6-(6-chloro-2,5-dimethyl-pyrimidin-4-yl)-7,8-dihydro-5H-1,6-naphthyridin-3-yl]-3,5-dimethyl-isoxazole], the Emax at 30 µM is 92% and the EC50 stood at 63 nM.

For `Cc1nc(Cl)c(C)c(N2CCc3ncc(-c4sc(C)nc4C)cc3C2)n1` [compound 198, 5-[6-(6-chloro-2,5-dimethyl-pyrimidin-4-yl)-7,8-dihydro-5H-1,6-naphthyridin-3-yl]-2,4-dimethyl-thiazole], the Emax at 30 µM is 92% and the half-maximal effective concentration (EC50) worked out at 137 nM.

Turning to `Cc1nc(Cl)c(C)c(N2CCc3ncc(-c4cnc(C)s4)cc3C2)n1` [compound 199, 5-[6-(6-chloro-2,5-dimethyl-pyrimidin-4-yl)-7,8-dihydro-5H-1,6-naphthyridin-3-yl]-2-methyl-thiazole], the maximal response (Emax) at 30 µM amounted to 81% and the EC50 is 140 nM.

As for `Cc1nc(Cl)c(C)c(N2CCc3ncc(C(F)(F)F)cc3C2)n1` [compound 200, 6-(6-chloro-2,5-dimethyl-pyrimidin-4-yl)-3-(trifluoromethyl)-7,8-dihydro-5H-1,6-naphthyridine], the Emax at 30 µM came to 96% and the EC50 stood at 128 nM.

As for `Cc1nc(C)c(C)c(N2CCc3ncc(-c4cn(C)nc4C)cc3C2)n1` [compound 201, 3-(1,3-dimethylpyrazol-4-yl)-6-(2,5,6-trimethylpyrimidin-4-yl)-7,8-dihydro-5H-1,6-naphthyridine], the maximum response (Emax) at 30 µM is 77% and the EC50 was found to be 176 nM.

`Cc1nc(Cl)c(C)c(N2CCc3ncc(Oc4ccc(F)cc4)cc3C2)n1` [compound 202, 6-(6-chloro-2,5-dimethyl-pyrimidin-4-yl)-3-(4-fluorophenoxy)-7,8-dihydro-5H-1,6-naphthyridine]: the maximal effect (Emax) at 30 µM came to 78% and the 50% effective concentration (EC50) was 921 nM.

Consider `Cc1nc(Cl)c(C)c(N2CCc3ncc(Oc4cccc(F)c4)cc3C2)n1` [compound 203, 6-(6-chloro-2,5-dimethyl-pyrimidin-4-yl)-3-(3-fluorophenoxy)-7,8-dihydro-5H-1,6-naphthyridine], for which the maximal effect (Emax) at 30 µM came out at 86% and the EC50 was 647 nM.

For the compound `Cc1nc(Cl)c(C)c(N2CCc3ncc(Oc4ccccc4F)cc3C2)n1` [compound 204, 6-(6-chloro-2,5-dimethyl-pyrimidin-4-yl)-3-(2-fluorophenoxy)-7,8-dihydro-5H-1,6-naphthyridine], the Emax at 30 µM came out at 90% and the EC50 was 328 nM.

In the case of `COc1ccc(Oc2cnc3c(c2)CN(c2nc(C)nc(Cl)c2C)CC3)cn1` [compound 205, 6-(6-chloro-2,5-dimethyl-pyrimidin-4-yl)-3-[(6-methoxy-3-pyridyl)oxy]-7,8-dihydro-5H-1,6-naphthyridine], the maximal response (Emax) at 30 µM was determined as 67% and the 50% effective concentration (EC50) stood at 1340 nM.

With `Cc1nc(Cl)c(C)c(N2CCc3ncc(Oc4ccc5c(c4)OCCO5)cc3C2)n1` [compound 206, 6-(6-chloro-2,5-dimethyl-pyrimidin-4-yl)-3-(2,3-dihydro-1,4-benzodioxin-6-yloxy)-7,8-dihydro-5H-1,6-naphthyridine], the Emax at 30 µM is 77% and the EC50 is 534 nM.

With `Cc1nc(Cl)c(C)c(N2CCc3ncc(Oc4cccnc4)cc3C2)n1` [compound 207, 6-(6-chloro-2,5-dimethyl-pyrimidin-4-yl)-3-(3-pyridyloxy)-7,8-dihydro-5H-1,6-naphthyridine], the Emax at 30 µM was determined as 86% and the concentration for a half-maximal effect (EC50) was determined as 370 nM.

With `Cc1nc(Cl)c(C)c(N2CCc3ncc(Oc4ccc5c(cnn5C)c4)cc3C2)n1` [compound 208, 6-(6-chloro-2,5-dimethyl-pyrimidin-4-yl)-3-(1-methylindazol-5-yl)oxy-7,8-dihydro-5H-1,6-naphthyridine], the maximal effect (Emax) at 30 µM is 76% and the EC50 was found to be 304 nM.

With `Cc1cnc2c(c1)CN(c1nc(C)nc(Cl)c1C)CC2` [compound 209, 6-(6-chloro-2,5-dimethyl-pyrimidin-4-yl)-3-methyl-7,8-dihydro-5H-1,6-naphthyridine], the maximal response (Emax) came to 95% and the EC50 was found to be 170 nM.

On to `COCc1nc(Cl)c(C)c(N2CCc3ncc(Br)cc3C2)n1` [compound 211, 3-bromo-6-(6-chloro-2-(methoxymethyl)-5-methylpyrimidin-4-yl)-5,6,7,8-tetrahydro-1,6-naphthyridine], for which the Emax was 99% and the EC50 worked out at 123 nM.

As to `Cc1nc(Cl)c(C)c(N2CCc3ncc(Nc4ccnn4C)cc3C2)n1` [compound 212, 6-(6-chloro-2,5-dimethylpyrimidin-4-yl)-N-(1-methyl-1H-pyrazol-5-yl)-5,6,7,8-tetrahydro-1,6-naphthyridin-3-amine], the maximal effect (Emax) at 30 µM was found to be 98% and the EC50 stood at 65 nM.

With `Cc1nc(Cl)c(C)c(N2CCc3ncc(N)cc3C2)n1` [compound 213, 6-(6-chloro-2,5-dimethylpyrimidin-4-yl)-5,6,7,8-tetrahydro-1,6-naphthyridin-3-amine], the Emax came out at 94% and the concentration for a half-maximal effect (EC50) was determined as 1890 nM.

Regarding `COCc1nc(Cl)c(C)c(N2CCc3ncc(C(F)(F)F)cc3C2)n1` [compound 214, 6-(6-chloro-2-(methoxymethyl)-5-methylpyrimidin-4-yl)-3-(trifluoromethyl)-5,6,7,8-tetrahydro-1,6-naphthyridine], the Emax at 30 µM amounted to 103% and the EC50 stood at 709 nM.

With `Cc1nc(Cl)c(C)c(N2CCc3ncc(C(F)F)cc3C2)n1` [compound 215, 6-(6-chloro-2,5-dimethylpyrimidin-4-yl)-3-(difluoromethyl)-5,6,7,8-tetrahydro-1,6-naphthyridine], the maximal response (Emax) came out at 93% and the EC50 was found to be 137 nM.
